According to ChEMBL document CHEMBL4177661, “Improvement in aqueous solubility achieved via small molecular changes” (Bioorg Med Chem Lett, 2017):
≈ marks a conversion by molar mass, not a printed value. One block for each compound: values may come before it.

How the values were obtained:
[1] = Solubility of the compound at pH 7.4; assay type: physicochemical; settings: buffer
physchem [2] = settings: octanol/water
Description: Lipophilicity, log P of the compound

[3] = Solubility of the compound; assay type: physicochemical
physchem [4] = settings: water
Description: Solubility of the compound in water at 35 degC

[5] = Dissociation constant, pKa of the compound; assay type: physicochemical

solubility [1]: 5 µg/mL (≈ 13.9 µM)
Structure (SMILES): O=C(Nc1ccc(-c2nnc(-c3ccccc3)o2)cc1)c1ccc(F)cc1

solubility [3]: 5660 µg/mL (≈ 43800 µM)
Structure (SMILES): c1ccc2cnccc2c1 [ISOQUINOLINE]

logP (physchem [2]): -0.44
Structure (SMILES): c1cncnc1 [PYRIMIDINE]

solubility [3]: 1300 µg/mL (≈ 8900 µM)
Structure (SMILES): Oc1cccc2cncnc12

solubility [1]: 5.23 µg/mL (≈ 14.6 µM)
Structure (SMILES): O=C(Nc1ccc(-c2nc(-c3ccccc3)no2)cc1)c1ccc(F)cc1

solubility [1]: 6.12 µg/mL (≈ 17.9 µM)
Structure (SMILES): O=C(Nc1ccc(-c2nc(-c3ccccc3)no2)cc1)c1ccccc1

solubility [1]: 5.89 µg/mL (≈ 17.3 µM)
Structure (SMILES): O=C(Nc1ccc(-c2nnc(-c3ccccc3)o2)cc1)c1ccccc1

solubility [3]: 6600 µg/mL (≈ 45200 µM)
Structure (SMILES): Oc1cccc2nccnc12

solubility [3]: 600 µg/mL (≈ 4110 µM)
Structure (SMILES): Oc1cccc2ccnnc12

Continued, compound first:

Structure (SMILES): c1ccc2c(c1)CCNC2 [1,2,3,4-TETRAHYDROISOQUINOLINE]
logP (physchem [2]): 1.71

Structure (SMILES): CC(C)CCC[C@@H](C)[C@H]1CC[C@H]2[C@@H]3CC[C@H]4C[C@@H](O)CC[C@]4(C)[C@H]3CC[C@]12C
solubility (physchem [4]): 0.009 µg/mL (≈ 0.0232 µM)

Structure (SMILES): CCCCCCCC [OCTANE]
logP (physchem [2]): 4.93
solubility [3]: 1 µg/mL (≈ 8.75 µM)

Structure (SMILES): C=CCCCCCC
solubility [3]: 3 µg/mL (≈ 26.7 µM)

Structure (SMILES): c1cnccn1 [PYRAZINE]
pKa [5]: 0.7

Structure (SMILES): C1CCCCCCC1 [CYCLOOCTANE]
logP (physchem [2]): 4.07
solubility [3]: 7 µg/mL (≈ 62.4 µM)
